Results from ChEMBL document CHEMBL4340530, “Peptide-based covalent inhibitors of MALT1 paracaspase” (Bioorg Med Chem Lett, 2019).
Active and inactive are the calls of the source. The calls are words filed in the database; no cut-off is given here.

Assays:
Caspase-9 (Homo sapiens) = Caspase-9 (Homo sapiens) (UniProt P55211); experiment: Inhibition of caspase-9 (unknown origin) at 10 uM
[1] = molecular target: Prothrombin (Homo sapiens) (UniProt P00734); experiment: Inhibition of thrombin (unknown origin) at 100 nM relative to control
Legumain (Homo sapiens) = Legumain (Homo sapiens) (UniProt Q99538); experiment: Inhibition of legumain (unknown origin) at 10 uM
Legumain (Homo sapiens), sequence (Q99538 whole entry): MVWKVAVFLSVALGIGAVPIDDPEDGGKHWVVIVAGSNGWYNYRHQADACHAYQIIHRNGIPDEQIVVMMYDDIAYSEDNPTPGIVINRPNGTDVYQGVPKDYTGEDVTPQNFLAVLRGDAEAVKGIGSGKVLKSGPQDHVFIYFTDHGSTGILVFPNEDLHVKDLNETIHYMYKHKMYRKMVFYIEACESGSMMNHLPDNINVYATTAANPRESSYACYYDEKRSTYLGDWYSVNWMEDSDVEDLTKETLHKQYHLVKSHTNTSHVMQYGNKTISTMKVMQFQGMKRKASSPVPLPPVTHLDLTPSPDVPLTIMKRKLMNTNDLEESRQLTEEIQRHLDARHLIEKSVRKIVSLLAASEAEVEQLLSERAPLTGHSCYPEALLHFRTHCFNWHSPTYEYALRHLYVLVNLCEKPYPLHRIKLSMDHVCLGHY

[2] = Drug uptake in ip dosed mouse plasma by LC-MS/MS analysis; type: ADME, organism-based; conditions: in vivo
[3] = molecular target: Cathepsin S (Homo sapiens) (UniProt P25774); experiment: Inhibition of cathepsin S (unknown origin) at 100 nM relative to control
Cathepsin S (Homo sapiens), sequence (P25774 115-331 limits assumed): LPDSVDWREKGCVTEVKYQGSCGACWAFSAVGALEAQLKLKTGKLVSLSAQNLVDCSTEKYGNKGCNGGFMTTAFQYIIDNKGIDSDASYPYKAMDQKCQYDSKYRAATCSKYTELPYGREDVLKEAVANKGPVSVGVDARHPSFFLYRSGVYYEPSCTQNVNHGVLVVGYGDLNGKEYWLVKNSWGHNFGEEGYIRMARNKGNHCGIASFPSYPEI

[4] = molecular target: T1, Cathepsin L2 (Homo sapiens) (UniProt O60911); experiment: Inhibition of cathepsin V (unknown origin) at 1 uM relative to control
T1 sequence (whole entry): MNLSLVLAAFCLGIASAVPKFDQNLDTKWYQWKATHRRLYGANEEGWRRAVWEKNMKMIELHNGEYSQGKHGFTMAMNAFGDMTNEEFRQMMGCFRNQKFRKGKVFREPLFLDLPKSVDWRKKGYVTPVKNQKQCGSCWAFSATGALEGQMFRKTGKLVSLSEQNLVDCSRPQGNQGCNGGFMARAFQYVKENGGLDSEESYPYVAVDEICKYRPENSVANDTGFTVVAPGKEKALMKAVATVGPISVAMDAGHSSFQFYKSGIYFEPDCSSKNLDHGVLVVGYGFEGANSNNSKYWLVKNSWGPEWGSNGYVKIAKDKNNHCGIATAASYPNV

OCI-Ly3 [5] = experiment: Antiproliferative activity against human OCI-LY3 cells assessed as growth inhibition treated every 48 hrs measured after 96 hrs by CellTiter-Glo assay; type: functional
[6] = molecular target: Cathepsin S (Homo sapiens) (UniProt P25774); experiment: Inhibition of cathepsin S (unknown origin) at 1 uM relative to control
OCI-Ly3 [7] = experiment: Antitumor activity against human OCI-LY3 cells xenografted in ip dosed NOD Cg-rkdc SCID Il2rgtm1Wjl/SzJ mouse assessed as effect on tumor growth administered twice daily for 16 to 24 days measured 4 hrs post-last dose; type: functional, organism-based
Caspase-1 (Homo sapiens) = Caspase-1 (Homo sapiens) (UniProt P29466); experiment: Inhibition of caspase-1 (unknown origin) at 10 uM
Caspase-1 (Homo sapiens), sequence (P29466 120-297 limits assumed): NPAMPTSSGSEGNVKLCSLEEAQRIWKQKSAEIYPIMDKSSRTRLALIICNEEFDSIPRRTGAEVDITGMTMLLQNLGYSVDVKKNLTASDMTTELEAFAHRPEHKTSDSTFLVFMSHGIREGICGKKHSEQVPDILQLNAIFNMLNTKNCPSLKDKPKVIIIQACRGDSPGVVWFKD
Caspase-1 (Homo sapiens), sequence (P29466 317-404 limits assumed): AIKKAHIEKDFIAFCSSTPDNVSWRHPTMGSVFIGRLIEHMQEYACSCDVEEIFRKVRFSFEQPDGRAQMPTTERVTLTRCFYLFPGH

[8] = molecular target: Tryptase beta-2 (Homo sapiens) (UniProt P20231); experiment: Inhibition of tryptase b2 (unknown origin) at 1 uM relative to control
Tryptase beta-2 (Homo sapiens), sequence (P20231 whole entry): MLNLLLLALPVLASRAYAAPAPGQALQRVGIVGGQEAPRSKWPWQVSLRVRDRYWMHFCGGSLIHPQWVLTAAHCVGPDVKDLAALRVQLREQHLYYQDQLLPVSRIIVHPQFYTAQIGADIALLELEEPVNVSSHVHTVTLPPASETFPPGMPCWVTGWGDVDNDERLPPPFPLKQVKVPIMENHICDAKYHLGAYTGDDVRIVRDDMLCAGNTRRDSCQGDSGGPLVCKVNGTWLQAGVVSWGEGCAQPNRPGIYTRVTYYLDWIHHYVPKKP

[9] = molecular target: Prothrombin (Homo sapiens) (UniProt P00734); experiment: Inhibition of thrombin (unknown origin) at 10 uM relative to control
Caspase-2 (Homo sapiens) = Caspase-2 (Homo sapiens) (UniProt P42575); experiment: Inhibition of caspase-2 (unknown origin) at 10 uM
Caspase-2 (Homo sapiens), sequence (P42575 170-325 limits assumed): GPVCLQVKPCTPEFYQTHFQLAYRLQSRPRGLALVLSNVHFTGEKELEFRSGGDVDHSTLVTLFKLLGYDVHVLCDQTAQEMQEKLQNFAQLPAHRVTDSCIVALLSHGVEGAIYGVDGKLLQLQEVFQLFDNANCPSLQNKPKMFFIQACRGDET
Caspase-2 (Homo sapiens), sequence (P42575 334-452 limits assumed): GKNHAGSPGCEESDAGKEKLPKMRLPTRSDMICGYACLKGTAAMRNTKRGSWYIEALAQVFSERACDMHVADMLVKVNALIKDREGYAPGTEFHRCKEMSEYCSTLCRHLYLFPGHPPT

[10] = molecular target: T2, Mucosa-associated lymphoid tissue lymphoma translocation protein 1 (Homo sapiens) (UniProt Q9UDY8); experiment: Inhibition of MALT1 (unknown origin) expressed in PMA/IO-stimulated human Raji Glosensor cells by reporter gene assay; type: cell-based
T2 sequence (whole entry): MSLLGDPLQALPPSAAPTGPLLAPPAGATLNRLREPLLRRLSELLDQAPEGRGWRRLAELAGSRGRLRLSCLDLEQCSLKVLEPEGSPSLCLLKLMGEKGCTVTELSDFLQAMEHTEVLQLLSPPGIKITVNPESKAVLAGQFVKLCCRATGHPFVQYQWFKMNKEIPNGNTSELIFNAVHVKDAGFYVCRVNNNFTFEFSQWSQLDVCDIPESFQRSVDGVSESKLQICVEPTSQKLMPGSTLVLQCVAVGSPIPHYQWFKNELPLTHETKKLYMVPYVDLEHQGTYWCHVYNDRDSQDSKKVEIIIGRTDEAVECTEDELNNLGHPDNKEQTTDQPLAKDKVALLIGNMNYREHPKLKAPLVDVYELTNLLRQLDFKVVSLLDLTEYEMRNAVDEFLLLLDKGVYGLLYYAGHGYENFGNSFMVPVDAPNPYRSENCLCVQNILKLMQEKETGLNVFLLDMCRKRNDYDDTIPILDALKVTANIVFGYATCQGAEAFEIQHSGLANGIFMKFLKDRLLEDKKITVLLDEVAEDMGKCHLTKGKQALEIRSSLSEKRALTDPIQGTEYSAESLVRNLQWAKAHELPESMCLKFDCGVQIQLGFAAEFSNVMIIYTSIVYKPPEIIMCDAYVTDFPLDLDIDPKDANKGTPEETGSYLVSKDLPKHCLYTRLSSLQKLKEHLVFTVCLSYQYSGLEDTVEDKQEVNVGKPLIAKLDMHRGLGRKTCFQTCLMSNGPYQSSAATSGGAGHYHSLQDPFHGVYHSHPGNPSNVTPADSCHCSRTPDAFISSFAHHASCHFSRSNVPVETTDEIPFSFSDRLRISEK

[11] = molecular target: Coagulation factor X (Homo sapiens) (UniProt P00742); experiment: Inhibition of factor Xa (unknown origin) at 10 uM
Coagulation factor X (Homo sapiens), sequence (P00742 41-179 limits assumed): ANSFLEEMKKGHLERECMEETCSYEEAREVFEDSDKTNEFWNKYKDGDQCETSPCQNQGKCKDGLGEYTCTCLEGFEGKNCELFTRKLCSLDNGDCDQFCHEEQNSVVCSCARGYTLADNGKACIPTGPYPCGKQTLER
Coagulation factor X (Homo sapiens), sequence (P00742 235-488 limits assumed): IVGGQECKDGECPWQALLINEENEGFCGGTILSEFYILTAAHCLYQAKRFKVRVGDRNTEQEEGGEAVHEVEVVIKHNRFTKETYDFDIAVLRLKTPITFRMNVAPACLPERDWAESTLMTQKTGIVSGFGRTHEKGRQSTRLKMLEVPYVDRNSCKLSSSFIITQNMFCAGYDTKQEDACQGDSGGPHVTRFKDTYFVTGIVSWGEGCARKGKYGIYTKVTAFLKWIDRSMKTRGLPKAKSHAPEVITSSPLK

[12] = molecular target: Cathepsin B (Homo sapiens) (UniProt P07858); experiment: Inhibition of cathepsin B (unknown origin) at 10 uM relative to control
Trypsin (Homo sapiens) = Trypsin (Homo sapiens) (UniProt P07477+P07478+P35030); experiment: Inhibition of trypsin (unknown origin) at 100 nM relative to control; type: protein assay
Caspase-5 (Homo sapiens) = Caspase-5 (Homo sapiens) (UniProt P51878); experiment: Inhibition of caspase-5 (unknown origin) at 10 uM
Caspase-5 (Homo sapiens), sequence (P51878 137-327 limits assumed): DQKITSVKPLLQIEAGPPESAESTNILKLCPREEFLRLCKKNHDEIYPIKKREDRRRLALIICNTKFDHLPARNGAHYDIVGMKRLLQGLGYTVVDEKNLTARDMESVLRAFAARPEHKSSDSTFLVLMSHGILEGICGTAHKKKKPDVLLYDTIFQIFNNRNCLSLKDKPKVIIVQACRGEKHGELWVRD
Caspase-5 (Homo sapiens), sequence (P51878 347-434 limits assumed): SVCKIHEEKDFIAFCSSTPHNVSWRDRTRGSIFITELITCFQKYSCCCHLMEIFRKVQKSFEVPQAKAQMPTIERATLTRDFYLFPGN

[13] = Half life in mouse microsomes; type: ADME, Microsome
[14] = molecular target: T3, Calpain1/2 (Homo sapiens) (UniProt P17655+P07384); experiment: Inhibition of calpain (unknown origin) at 100 nM relative to control; type: protein assay
T3 sequence (P07384 whole entry, looked up): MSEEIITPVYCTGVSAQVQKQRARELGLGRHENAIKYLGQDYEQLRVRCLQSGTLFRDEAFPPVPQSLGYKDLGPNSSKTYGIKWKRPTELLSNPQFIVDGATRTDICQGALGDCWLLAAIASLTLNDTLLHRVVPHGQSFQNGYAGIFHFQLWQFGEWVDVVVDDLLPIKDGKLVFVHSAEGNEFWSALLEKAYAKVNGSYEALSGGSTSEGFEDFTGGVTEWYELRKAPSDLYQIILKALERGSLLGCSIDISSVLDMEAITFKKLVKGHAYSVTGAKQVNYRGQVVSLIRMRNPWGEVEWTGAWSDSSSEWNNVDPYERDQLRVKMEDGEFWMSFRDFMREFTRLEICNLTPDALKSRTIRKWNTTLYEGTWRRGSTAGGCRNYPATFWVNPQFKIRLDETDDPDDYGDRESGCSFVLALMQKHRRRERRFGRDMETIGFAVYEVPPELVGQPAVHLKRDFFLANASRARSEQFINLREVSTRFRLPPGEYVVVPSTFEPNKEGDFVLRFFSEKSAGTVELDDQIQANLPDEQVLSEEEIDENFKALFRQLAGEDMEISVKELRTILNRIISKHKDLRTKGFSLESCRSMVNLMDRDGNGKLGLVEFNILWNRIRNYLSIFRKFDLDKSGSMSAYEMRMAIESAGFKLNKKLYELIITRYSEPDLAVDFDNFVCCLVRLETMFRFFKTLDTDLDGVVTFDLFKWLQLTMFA
T3 sequence (P17655 whole entry, looked up): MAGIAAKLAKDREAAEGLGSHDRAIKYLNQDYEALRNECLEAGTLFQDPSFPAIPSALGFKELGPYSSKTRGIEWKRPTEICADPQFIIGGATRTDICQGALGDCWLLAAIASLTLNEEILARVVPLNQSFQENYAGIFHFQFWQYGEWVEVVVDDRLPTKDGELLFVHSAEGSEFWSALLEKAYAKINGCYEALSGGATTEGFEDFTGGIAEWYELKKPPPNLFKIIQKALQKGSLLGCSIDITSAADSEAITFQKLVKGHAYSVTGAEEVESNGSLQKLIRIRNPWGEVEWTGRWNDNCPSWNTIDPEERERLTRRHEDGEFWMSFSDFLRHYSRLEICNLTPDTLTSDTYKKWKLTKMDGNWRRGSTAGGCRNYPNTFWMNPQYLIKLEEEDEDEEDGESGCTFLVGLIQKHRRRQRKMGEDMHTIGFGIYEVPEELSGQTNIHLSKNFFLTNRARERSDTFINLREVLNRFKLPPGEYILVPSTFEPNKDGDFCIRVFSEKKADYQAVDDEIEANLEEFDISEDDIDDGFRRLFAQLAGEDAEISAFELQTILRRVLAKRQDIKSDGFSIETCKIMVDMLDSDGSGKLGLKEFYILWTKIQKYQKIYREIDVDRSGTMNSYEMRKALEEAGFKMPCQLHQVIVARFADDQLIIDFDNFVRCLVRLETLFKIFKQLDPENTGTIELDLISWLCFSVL

[15] = molecular target: T1, Cathepsin L2 (Homo sapiens); experiment: Inhibition of cathepsin V (unknown origin) at 10 uM relative to control
[16] = molecular target: Cathepsin B (Homo sapiens) (UniProt P07858); experiment: Inhibition of cathepsin B (unknown origin) at 1 uM relative to control
[17] = molecular target: Cathepsin S (Homo sapiens) (UniProt P25774); experiment: Inhibition of cathepsin S (unknown origin) at 10 uM relative to control
[18] = molecular target: Prothrombin (Homo sapiens) (UniProt P00734); experiment: Inhibition of thrombin (unknown origin) at 1 uM relative to control
[19] = molecular target: Caspase-10 (Homo sapiens) (UniProt Q92851); experiment: Inhibition of caspase-10 (unknown origin) at 10 uM
Caspase-10 (Homo sapiens), sequence (Q92851 220-415 limits assumed): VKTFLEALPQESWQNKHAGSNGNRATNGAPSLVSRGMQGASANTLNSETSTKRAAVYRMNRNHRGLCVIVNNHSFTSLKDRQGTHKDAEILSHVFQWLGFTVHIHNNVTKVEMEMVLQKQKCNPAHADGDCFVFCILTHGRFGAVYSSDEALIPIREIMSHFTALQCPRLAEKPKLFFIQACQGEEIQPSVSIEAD
Caspase-10 (Homo sapiens), sequence (Q92851 416-521 limits assumed): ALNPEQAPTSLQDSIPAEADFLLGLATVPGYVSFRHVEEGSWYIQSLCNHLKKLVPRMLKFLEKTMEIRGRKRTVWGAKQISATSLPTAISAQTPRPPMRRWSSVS

[20] = molecular target: Cathepsin D (Homo sapiens) (UniProt P07339); experiment: Inhibition of cathepsin D (unknown origin) at 10 uM
Cathepsin D (Homo sapiens), sequence (P07339 65-162 limits assumed): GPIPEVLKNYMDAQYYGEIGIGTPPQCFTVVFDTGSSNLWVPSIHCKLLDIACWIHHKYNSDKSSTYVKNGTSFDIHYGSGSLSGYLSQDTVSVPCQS
Cathepsin D (Homo sapiens), sequence (P07339 169-412 limits assumed): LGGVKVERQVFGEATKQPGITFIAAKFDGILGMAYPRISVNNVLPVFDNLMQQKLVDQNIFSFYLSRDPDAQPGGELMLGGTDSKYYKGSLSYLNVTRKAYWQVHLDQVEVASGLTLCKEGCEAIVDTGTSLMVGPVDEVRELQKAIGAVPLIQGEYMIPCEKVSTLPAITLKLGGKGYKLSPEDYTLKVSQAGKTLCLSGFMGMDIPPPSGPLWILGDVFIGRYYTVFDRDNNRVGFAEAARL

[21] = molecular target: T3, Calpain1/2 (Homo sapiens); experiment: Inhibition of calpain (unknown origin) at 1 uM relative to control; type: protein assay
[22] = molecular target: Cathepsin B (Homo sapiens) (UniProt P07858); experiment: Inhibition of cathepsin B (unknown origin) at 100 nM relative to control
Caspase-3 (Homo sapiens) = Caspase-3 (Homo sapiens) (UniProt P42574); experiment: Inhibition of caspase-3 (unknown origin) at 10 uM
Caspase-3 (Homo sapiens), sequence (P42574 29-175 limits assumed): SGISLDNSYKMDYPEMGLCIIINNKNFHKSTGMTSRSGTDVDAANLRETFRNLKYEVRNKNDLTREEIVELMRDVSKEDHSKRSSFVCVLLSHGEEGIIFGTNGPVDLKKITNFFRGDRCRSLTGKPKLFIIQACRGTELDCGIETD
Caspase-3 (Homo sapiens), sequence (P42574 176-277 limits assumed): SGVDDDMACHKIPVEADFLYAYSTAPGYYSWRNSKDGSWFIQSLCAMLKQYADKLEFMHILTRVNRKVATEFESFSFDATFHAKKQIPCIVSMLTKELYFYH

[23] = molecular target: Kallikrein-2 (Homo sapiens) (UniProt P20151); experiment: Inhibition of KLK2 (unknown origin) at 10 uM
Kallikrein-2 (Homo sapiens), sequence (P20151 whole entry): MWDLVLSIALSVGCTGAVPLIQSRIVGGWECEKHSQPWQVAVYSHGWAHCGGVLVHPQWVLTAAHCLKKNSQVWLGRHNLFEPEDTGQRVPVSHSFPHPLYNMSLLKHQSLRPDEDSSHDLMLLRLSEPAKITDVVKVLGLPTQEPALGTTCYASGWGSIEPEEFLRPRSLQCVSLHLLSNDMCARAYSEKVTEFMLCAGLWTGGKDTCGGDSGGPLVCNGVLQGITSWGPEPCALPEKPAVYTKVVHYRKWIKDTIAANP

Caspase-4 (Homo sapiens) = Caspase-4 (Homo sapiens) (UniProt P49662); experiment: Inhibition of caspase-4 (unknown origin) at 10 uM
[24] = Drug uptake in iv dosed mouse plasma by LC-MS/MS analysis; type: ADME, organism-based; conditions: in vivo
Caspase-8 (Homo sapiens) = Caspase-8 (Homo sapiens) (UniProt Q14790); experiment: Inhibition of caspase-8 (unknown origin) at 10 uM
[25] = molecular target: Tryptase beta-2 (Homo sapiens) (UniProt P20231); experiment: Inhibition of tryptase b2 (unknown origin) at 100 nM relative to control

For `CC(C)[C@H](NC(=O)c1ccc(Br)cc1)C(=O)N1CCC[C@H]1C(=O)N[C@@H](CCCNC(=N)N)C(=O)CF`, the inhibition (Caspase-9 (Homo sapiens)) was “Active”, the inhibition [1] was 14.8% and the inhibition (Legumain (Homo sapiens)) was “Active”. For the same compound, the Drug uptake [2] was “Active”, the inhibition [3] was 78.2% and the inhibition [4] was 56.9%. For the same compound, the GI50 (OCI-Ly3 [5]) was 0.13 µM, the inhibition [6] was 83.9% and the Activity (OCI-Ly3 [7]) was “Active”. The inhibition (Caspase-1 (Homo sapiens)) was “Active”, the inhibition [8] was 14% and the inhibition [9] was 83%. The inhibition (Caspase-2 (Homo sapiens)) was “Active”, the IC50 [10] was 0.07 to 0.071 µM and the inhibition [11] was “Active”. For the same compound, the inhibition [12] was 99.6%, the inhibition (Trypsin (Homo sapiens)) was 92.9% and the inhibition (Caspase-5 (Homo sapiens)) was “Active”. The t1/2 [13] was > 2 h, the inhibition [14] was 23.6% and the inhibition [15] was 89.4%. It also gave an inhibition [16] of 92.5%, an inhibition [17] of 99.1% and an inhibition [18] of 25.2%. For the same compound, the inhibition [19] was “Active”, the inhibition [20] was “Active” and the inhibition [21] was 25.6%. For the same compound, the inhibition [22] was 34.2%, the inhibition (Caspase-3 (Homo sapiens)) was “Active” and the inhibition [23] was “Active”. For the same compound, the inhibition (Caspase-4 (Homo sapiens)) was “Active”, the Drug uptake [24] was “Active” and the inhibition (Caspase-8 (Homo sapiens)) was “Active”. It also gave an inhibition [25] of 6.1%.
